Patent US20130203734A1, “ANTI-INFLAMMATORY AGENTS” (priority 2010, published 2013)

How the values were obtained:
[1] = system: MCP-1 induced migration of THP-1 cells; conditions: cited from earlier work
[2] = system: endotoxin-stimulated TNF-alpha levels; assay: Murine sub-lethal endotoxemia model, serum TNF-α by ELISA; type: in vivo, mice
Description: FIG. 2 is a graph showing the results of a murine sub-lethal endotoxemia test.
The anti-inflammatory efficacy of an exemplar compound according to the present invention was tested using the murine sub-lethal endotoxemia model.
Briefly, the method is as follows. Female CD1 mice (28-30g, ˜7 weeks of age) were dosed with their respective treatment in sterile filtered 1% CMC by oral gavage in a dose volume of 10 ml/kg one hour prior to an endotoxin (LPS) challenge. The endotoxin challenge was injected by the intraperitoneal route containing 675,000 Endotoxin Units of LPS (E. coli strain 0111:B4 (Code L4130)) in endotoxin free PBS. Mice were left for two hours and then exsanguinated under terminal anaesthesia and blood was taken. Serum was prepared from this terminal bleed and aliquoted and stored at −20° C. Serum TNF-α levels were measured by ELISA per manufacturers instructions (R and D Systems).
Eight animals were treated in each group, and the data for the animal with the highest and lowest TNF-α level in each group were eliminated, and the mean and standard error reported for the remaining six animals.

[3] = system: MCP-1 induced migration of THP-1 cells; assay: Inhibition of MCP-1 induced leukocyte migration (transwell, THP-1 cells); type: cell-based; conditions: Homo sapiens, MCP-1 25 ng/ml, 2 hours 37° C., read-out: ED50 (concentration required to reduce MCP-1-induced migration by 50%)
Description: A. Inhibition of MCP-1 Induced Leukocyte Migration
In principle, this assay consists of two chambers separated by a porous membrane. The chemoattractant is placed in the lower compartment and the cells are placed in the upper compartment. After incubation for a period at 37° C. the cells move towards the chemoattractant, and the number of cells in the lower compartment is proportional to the chemoattractant activity (relative to a series of controls).
This assay can be used with a range of different leukocyte populations. For example, freshly prepared human peripheral blood leukocytes may used. Alternatively, leukocyte subsets may be prepared, including polymorphonuclear cells or lymphocytes or monocytes using methods well known to those skilled in the art such as density gradient centrifugation or magnetic bead separations. Alternatively, immortal cell lines which have been extensively validated as models of human peripheral blood leukocytes may be used, including, but not limited to THP-1 cells as a model of monocytes or Jurkat cells as model of naive T cells.
The transwell migration systems are manufactured by Neuroprobe, Gaithersburg, Md., USA.
The plates used are ChemoTx plates (Neuroprobe 101-8) and 30 μl clear plates (Neuroprobe MP30).
Geys' Balanced Salt Solution is purchased from Sigma (Sigma G-9779).
Fatty acid-free BSA is purchased from Sigma (Sigma A-8806). […]

[4] = system: chemokine-induced migration; conditions: cited from earlier work
[5] = 37° C.; cited from earlier work
[6] = cited from earlier work

| Compound | melting point [°C] | also measured |
| --- | --- | --- |
| CCCCCCCCCCC(C)(C)C(=O)NC1CCCCNC1=O (stereo not drawn) [2′2′-dimethyldodecenanoyl-3-aminocaprolactam] |  | potency as a BSCI relative to dodecanoyl-3-aminocaprolactam ([1]; MCP-1 induced THP-1 cell migration assay): 10 fold |
| CCCCCCCCCC(C)(C)CC(=O)NC1CCCCNC1=O (stereo not drawn) [3′3′-dimethyldodecanoyl-3-aminocaprolactam] |  | potency as a BSCI relative to the linear alkyl analogs [1]: no more potent |
| O=C1NCCCC[C@@H]1NC(=O)C12CC3CC(CC(C3)C1)C2 [(S)-3-(adamantane-1-carbonyl)aminocaprolactam] |  | anti-inflammatory effect in vivo compared with the compound of Example 4 ([2]; 1 mg/kg p.o.): similar |
| O=C1NCCC[C@@H]1NS(=O)(=O)c1ccc(F)cc1 [Example 1, (S)-4-Fluoro-N-(2-oxopiperidin-3-yl)benzenesulfonamide] | 153 to 156 |  |
| O=C1NCCC[C@@H]1NS(=O)(=O)c1cccc(F)c1 [Example 2, (S)-3-Fluoro-N-(2-oxopiperidin-3-yl)benzenesulfonamide] | 159 to 160 |  |
| O=C1NCCC[C@@H]1NS(=O)(=O)c1ccccc1F [Example 3, (S)-2-Fluoro-N-(2-oxopiperidin-3-yl)benzenesulfonamide] | 180 to 183 |  |
| O=C1NCCC[C@@H]1NS(=O)(=O)c1ccc(C(F)(F)F)cc1 [Example 4, (S)—N-(2-Oxopiperidin-3-yl)-4-(trifluoromethyl)-benzenesulfonamide] |  | inhibition of endotoxin-stimulated TNF-alpha levels ([2]; female CD1 mice, single dose 10 mg/kg p.o. one hour prior to LPS, serum 2 hours after LPS): 60-70% |
| O=C1NCCC[C@@H]1NS(=O)(=O)c1cccc(C(F)(F)F)c1 [Example 5, (S)—N-(2-Oxopiperidin-3-yl)-3-(trifluoromethyl)benzenesulfonamide] | 158 to 160 |  |
| O=C1NCCC[C@@H]1NS(=O)(=O)c1ccccc1C(F)(F)F [Example 6, (S)—N-(2-oxopiperidin-3-yl)-2-(trifluoromethyl)benzenesulfonamide] | 161 to 163 |  |
| O=C1NCCC[C@@H]1NS(=O)(=O)c1ccc(F)cc1F [Example 7, (S)-2,4-difluoro-N-(2-oxopiperidin-3-yl)benzenesulfonamide] | 162 to 163 |  |
| O=C1NCCC[C@@H]1NS(=O)(=O)c1cc(F)ccc1F [Example 8, (S)-2,5-difluoro-N-(2-oxopiperidin-3-yl)benzenesulfonamide] | 183 to 185 |  |
| O=C1NCCC[C@@H]1NS(=O)(=O)c1c(F)cccc1F [Example 9, (S)-2,6-difluoro-N-(2-oxopiperidin-3-yl)benzenesulfonamide] | 152 to 153 |  |
| O=C1NCCC[C@@H]1NS(=O)(=O)c1ccc(F)c(F)c1 [Example 10, (S)-3,4-difluoro-N-(2-oxopiperidin-3-yl)benzenesulfonamide] | 153 to 155 |  |
| O=C1NCCC[C@@H]1NS(=O)(=O)c1cc(F)cc(F)c1 [Example 11, (S)-3,5-difluoro-N-(2-oxopiperidin-3-yl)benzenesulfonamide] | 170 to 174 |  |
| CC(C)(C)c1ccc(S(=O)(=O)N[C@H]2CCCNC2=O)cc1 [Example 16, (S)-3-(4′-tert-Butylbenzenesulfonylamino)-tetrahydropyridin-2-one] | 155 to 156 |  |
| CCCCCCCCc1ccc(S(=O)(=O)N[C@H]2CCCNC2=O)cc1 [Example 19, (S)-3-(4′-Octylbenzenesulfonylamino)-tetrahydropyridin-2-one] | 98 to 99 |  |
| Cc1ccc(S(=O)(=O)NC2CCCNC2=O)cc1 (stereo not drawn) [Reference Example 1, 3-(4′-Methylbenzenesulfonylamino)tetrahydropyridin-2-one] |  | EC50 [3]: ≤ 100 nM |
| Cc1ccc(S(=O)(=O)NC2CCCCNC2=O)cc1 (stereo not drawn) [Reference Example 2, 3-(4′-Methylbenzenesulfonylamino)azepan-2-one] |  | EC50 [3]: ≤ 100 nM |
| CCCCCCCCCC=CC(=O)NC1CCCCNC1=O (stereo not drawn) [dodec-2′,3′-enoyl-3-aminocaprolactam] |  | potency as BSCI relative to compounds with corresponding saturated alkyl tail groups [4]: markedly lower potency |
| O=C1CCC(N2C(=O)c3ccccc3C2=O)C(=O)N1 (stereo not drawn) [thalidomide] |  | anti-inflammatory effect on TNF-α levels in vivo compared with the compound of Example 4 ([2]; thalidomide 10 mg/kg p.o., positive control, maximally effective dose): quantitatively similar |
| (S)-3-(undec-10-enoyl)-tetrahydropyridin-2-one |  | potency compared with the parental molecule (S)-3-(undec-10-enoyl)-aminoglutarimide [4]: considerably reduced potency; stability in human serum (completely stable for) [5]: at least 7 days |
| c(DCys-DGln-DIle-DTrp-DLys-DGIn-DLys-DPro-DAsp-DLeu-DCys)-NH2 [NR58-3.14.3] |  | half-life of clearance from blood plasma ([6]; after intravenous injection): less than 30 minutes; oral bioavailability ([6]; in vivo, po): not orally bioavailable |
